From patent US20200355685A1, “REAGENT SET FOR DETECTING INTERACTIONS BETWEEN BIOMOLECULES AND THEIR REGULATORY FACTORS, AND APPLICATIONS” (TSINGHUA UNIVERSITY, priority 2017, published 2020)
No end group written: not given here. Me3 = trimethyl (trimethylated lysine)

What was measured:
[1] = target: T1, interaction between P53 and MDM2 (Homo sapiens, UniProt Q00987); test: Intracellular detection of the P53-MDM2 interaction in HEK293 cells co-transfected with GFP-NUPN-P53 and mCherry-MDM2; type: cell-based; conditions: system 8, final concentration of 5 μM, same field before and after treatment
T1 sequence (Q00987 with tags, fused parts or gaps): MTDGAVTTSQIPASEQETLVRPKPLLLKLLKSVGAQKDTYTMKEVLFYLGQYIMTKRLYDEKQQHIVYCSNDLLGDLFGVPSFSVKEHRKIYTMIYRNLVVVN
Description: Each recombinant vector obtained in step I was transfected (or co-transfected) into HEK293 cells (adherent culture) according to the following combinations, and the transfection reagent Hifectin I (Beijing Dinoao Biotechnology Co., Ltd.) was used, and the operation was performed according to the instruction of the reagent. The combinations and the amount of the transfection vector(s) per 105 HEK293 cells were as follows:
combination 1: pcDNA3.1-GFP-NUPN, the transfection dosage of the vector was 1 μg; combination 2: pcDNA3.1-mCherry, the transfection dosage of the vector was 1 μg; combination 3: pcDNA3.1-GFP-NUPN+pcDNA3.1-mCherry, the transfection dosages of these two vectors were 0.5 μg and 0.5 μg, respectively; combination 4: pcDNA3.1-GFP-NUPN-P53, the transfection dosage of the vector was 1 μg; combination 5: pcDNA3.1-GFP-NUPN-P53+pcDNA3.1-mCherry, the transfection dosages of these two vectors were 0.5 μg and 0.5 μg, respectively; combination 6: pcDNA3.1-mCherry-MDM2, the transfection dosage of the vector was 1 μg; combination 7: pcDNA3.1-GFP-NUPN+pcDNA3.1-mCherry-MDM2, the transfection dosages of these two vectors were 0.5 μg and 0.5 μg, respectively; combination 8: pcDNA3.1-GFP-NUPN-P53+pcDNA3.1-mCherry-MDM2, the transfection dosages of these two vectors were 0.5 μg and 0.5 μg, respectively. […]

CD = target: T2, CD (Homo sapiens, UniProt P83916); test: Phase transition droplet detection of the interaction between H3K9me3 and CD (SGS-CD, His-SGP, Hfq-mCherry-PDZ); type: binding; conditions: systems 15-20 with Hfq-mCherry-PDZ; mixture completely composed of the named peptide; all components 1 μM
T2 construct: His-SGS (His-tag, SmF, GFP, SH3 and linking regions); made in house; host or cells: E. coli BL21 (DE3)
T2 sequence (P83916 19-83): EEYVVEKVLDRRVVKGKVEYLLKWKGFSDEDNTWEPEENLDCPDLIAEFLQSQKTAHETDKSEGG
Description: The concentrations of His-SGS, SGS-CD, His-SGP, Hfq-mCherry-PDZ, mCherry-PDZ and the mixture of H3K9me3-KKETPV and H3K9-KKETPV in the corresponding systems were all 1 μM:
In Table 2, “+” represents that the substance is contained; “−” represents that the substance is not contained; “*” represents a mixture of H3K9me3-KKETPV and H3K9-KKETPV. In the systems 9-14, the molar percentages of H3K9me3-KKETPV in the mixture of H3K9me3-KKETPV and H3K9-KKETPV were 0, 0.2, 0.4, 0.6, 0.8 and 1.0, respectively, and in the systems 15-20, the molar percentages of H3K9me3-KKETPV in the mixture of H3K9me3-KKETPV and H3K9-KKETPV were 0, 0.2, 0.4, 0.6, 0.8 and 1.0, respectively.
(§1) Each of the above systems was subjected to a static incubation at 4° C. until the phase transition droplets in the systems in which phase transitions occurred completely settled to the bottom of the well plate, and the images were collected using a confocal high-content imaging microscope.

[2] = target: T3, interaction between FKBP and FRB (Homo sapiens, UniProt P42345+P62942); test: Phase transition droplet detection of the effect of a regulatory factor on the FKBP-FRB interaction (SGS-FKBP, mCherry-FRB, His-SGP); type: binding; conditions: rapamycin 0.2-1.0 μM, ampicillin control, mCherry-FRB and His-SGP all 1 μM, static incubation at 4° C.
T3 construct: His-SGS (His-tag, SmF, GFP, SH3 and linking regions); His-tag (N); made in house; host or cells: E. coli BL21 (DE3)
T3 sequence (P62942 with tags, fused parts or gaps): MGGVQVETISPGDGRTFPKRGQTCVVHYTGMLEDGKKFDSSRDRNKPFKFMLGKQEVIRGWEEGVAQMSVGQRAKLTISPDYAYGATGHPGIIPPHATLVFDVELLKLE
T3 sequence (P42345 with tags, fused parts or gaps): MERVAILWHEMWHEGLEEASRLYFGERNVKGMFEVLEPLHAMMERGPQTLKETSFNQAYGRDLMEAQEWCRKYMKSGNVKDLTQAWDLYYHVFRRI
Description: Different concentrations of rapamycin were set to obtain experimental systems with different concentrations of rapamycin.
Each of the above systems was subjected to static incubation at 4° C. until the phase transition droplets in the systems in which phase transitions occurred completely settled to the bottom of the well plate, and the image of each system was collected using a confocal high-content imaging microscope and the intensity of the red fluorescence signal in the phase transition droplets in each well plate was counted and analyzed.

[3] = target: T1, interaction between P53 and MDM2; test: Phase transition droplet detection of the effect of a regulatory factor on the P53-MDM2 interaction (SGS-P53, mCherry-MDM2, His-SGP); type: binding; parameters: His-tag (N); made in house; host or cells: E. coli BL21 (DE3); conditions: MI-773 1.25-25 μM, ampicillin 25 μM; SGS-P53, mCherry-MDM2 and His-SGP all 0.5 μM; static incubation at 4° C.
Description: the solutions of SGS-P53, mCherry-MDM2, His-SGP and ampicillin were mixed, and then 20 μL of the resulting mixture was transferred to a 384-microwell plate to obtain an ampicillin control system and the concentrations of SGS-P53, mCherry-MDM2 and His-SGP were all 0.5 μM in the ampicillin control system, and the concentration of ampicillin was 25 μM;
According to the above system, the solutions of SGS-P53, mCherry-MDM2, His-SGP and MI-773 were mixed, and then 20 μL of the resulting mixture was transferred into a 384-microwell plate. Different concentrations of MI-773 were set to obtain experimental systems with different concentrations of MI-773. The concentration of MI-773 in each experimental system was 0 (i.e., KMEI buffer), 1.25, 2.5, 5, 10, 15, and 25 μM, respectively, one concentration per well, and in each experimental system, the concentrations of SGS-P53, mCherry-MDM2 and His-SGP were all 0.5 μM.
as §1, with “to” for “to a”, “image of each system was” for “images were”, “microscope and the intensity of the red fluorescence signal in the phase transition droplets in each well plate was counted and analyzed.” for “microscope.”

effect on the interaction between P53 and MDM2 in cells (accumulation of red fluorescent signal in the second phase) [1] | effect on the interaction between FRB and FKBP (red fluorescence signal in the phase transition droplets) [2] | effect on the interaction between P53 and MDM2 (red fluorescence signal in the phase transition droplets) [3] | Compound | red fluorescence signal (mCherry) in the phase transition droplets (CD)
does not affect | – | – | CN[C@@H](C)C(=O)N[C@H](C(=O)N1CCC[C@H]1C(=O)Nc1snnc1-c1ccccc1)C1CCCCC1 [GDC0152] | –
– | – | – | H3K9-KKETPV: unmethylated peptide as shown in SEQ ID NO: 23, used as a control (ARTKQTARGGSGGSGGSWGGSKKETPVAV) | no significant red fluorescence
– | – | – | ARTK (Me) 3QTARGGSGGSGGSWGGSKKETPVAV (ARTK(Me3)QTARGGSGGSGGSWGGSKKETPVAV) [H3K9me3-KKETPV] | reached the highest
– | does not affect | does not affect | CC1(C)S[C@@H]2[C@H](NC(=O)[C@H](N)c3ccccc3)C(=O)N2[C@H]1C(=O)O [ampicillin] | –
significantly inhibit | – | significantly inhibit | CC(C)(C)C[C@@H]1N[C@@H](C(=O)N[C@H]2CC[C@H](O)CC2)[C@H](c2cccc(Cl)c2F)[C@]12C(=O)Nc1cc(Cl)ccc12 [MI-773] | –
